Test results reported in patent publication US8691753B2 (priority 2009, dated 2014).
Where two headings read alike, the source gives them in different places. Blank lines part the entries; values can stand above or below the compound they belong to.

Legend:
Format in all cases: biochemical
MMP-3h = MMP-3h (Homo sapiens (Human), UniProt P08254); test: Inhibition constant (Ki) on MMP-3h; conditions: human MMP-3
From the text: (§1) The inhibition constant Ki of these compounds has been determined according to the protocol described by Devel et al, 2006, J. Biol. Chem. (7).
(§2) In this table I and also in table II below, “h” corresponds to human. All of the compounds have therefore been evaluated on human MMPs.

MMP-12h = MMP-12h (Homo sapiens (Human), UniProt P39900); test: Inhibition constant (Ki) on MMP-12h; conditions: human MMP-12
MMP-12h, sequence (P39900 106-470): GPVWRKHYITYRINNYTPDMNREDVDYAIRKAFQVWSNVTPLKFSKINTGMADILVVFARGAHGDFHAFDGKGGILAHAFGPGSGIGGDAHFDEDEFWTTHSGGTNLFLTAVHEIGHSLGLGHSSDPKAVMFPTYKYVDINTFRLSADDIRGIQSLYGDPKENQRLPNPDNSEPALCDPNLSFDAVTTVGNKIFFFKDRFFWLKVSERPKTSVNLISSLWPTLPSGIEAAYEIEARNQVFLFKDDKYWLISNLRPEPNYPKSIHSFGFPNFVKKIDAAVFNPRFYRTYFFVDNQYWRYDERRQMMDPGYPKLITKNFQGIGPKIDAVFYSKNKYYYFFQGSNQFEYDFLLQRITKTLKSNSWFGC

MMP-9h = MMP-9h (Homo sapiens (Human), UniProt P14780); test: Inhibition constant (Ki) on MMP-9h; conditions: human MMP-9
MMP-9h, sequence (P14780 94-707): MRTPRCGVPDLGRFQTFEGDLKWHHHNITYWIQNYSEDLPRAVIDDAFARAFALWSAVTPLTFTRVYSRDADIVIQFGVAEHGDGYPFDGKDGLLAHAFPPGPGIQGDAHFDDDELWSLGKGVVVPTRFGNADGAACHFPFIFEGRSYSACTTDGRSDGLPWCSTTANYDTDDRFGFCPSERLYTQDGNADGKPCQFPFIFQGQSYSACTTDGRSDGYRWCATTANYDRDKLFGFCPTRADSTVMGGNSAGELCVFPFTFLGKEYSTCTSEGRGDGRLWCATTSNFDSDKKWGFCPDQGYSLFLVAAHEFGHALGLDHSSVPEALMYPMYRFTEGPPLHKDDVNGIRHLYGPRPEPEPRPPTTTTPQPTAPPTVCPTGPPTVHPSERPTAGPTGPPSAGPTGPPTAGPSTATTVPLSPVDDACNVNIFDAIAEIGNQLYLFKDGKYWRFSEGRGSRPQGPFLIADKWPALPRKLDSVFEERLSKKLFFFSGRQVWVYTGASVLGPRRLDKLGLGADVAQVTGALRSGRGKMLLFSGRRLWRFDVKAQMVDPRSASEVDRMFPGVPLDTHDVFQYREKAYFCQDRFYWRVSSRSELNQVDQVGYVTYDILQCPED
From the text: as §1, §2

MMP-2h = MMP-2h (Homo sapiens (Human), UniProt P08253); test: Inhibition constant (Ki) on MMP-2h; conditions: human MMP-2
MMP-2h, sequence (P08253 110-660): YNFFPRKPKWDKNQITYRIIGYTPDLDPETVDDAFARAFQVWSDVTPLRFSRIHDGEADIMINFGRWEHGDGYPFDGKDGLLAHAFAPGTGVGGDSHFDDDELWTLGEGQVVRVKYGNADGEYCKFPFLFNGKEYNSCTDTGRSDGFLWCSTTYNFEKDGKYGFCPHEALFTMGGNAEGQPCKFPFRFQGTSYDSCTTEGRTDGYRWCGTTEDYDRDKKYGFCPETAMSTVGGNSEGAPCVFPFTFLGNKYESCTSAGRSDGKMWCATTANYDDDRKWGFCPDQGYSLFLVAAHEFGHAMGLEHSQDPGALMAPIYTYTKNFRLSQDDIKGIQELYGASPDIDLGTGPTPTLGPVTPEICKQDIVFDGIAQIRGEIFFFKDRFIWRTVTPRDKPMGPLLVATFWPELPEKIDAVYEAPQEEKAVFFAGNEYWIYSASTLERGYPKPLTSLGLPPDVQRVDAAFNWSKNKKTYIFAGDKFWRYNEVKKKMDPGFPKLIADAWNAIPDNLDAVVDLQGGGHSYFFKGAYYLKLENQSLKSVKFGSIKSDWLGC
From the text: as §1, §2

MMP-13h = MMP-13h (Homo sapiens (Human), UniProt P45452); test: Inhibition constant (Ki) on MMP-13h; conditions: human MMP-13
From the text: as §1, §2

MMP-14h = MMP-14h (Homo sapiens (Human), UniProt P50281); test: Inhibition constant (Ki) on MMP-14h; conditions: human MMP-14
From the text: as §1, §2

MMP-8h = MMP-8h (Homo sapiens (Human), UniProt P22894); test: Inhibition constant (Ki) on MMP-8h; conditions: human MMP-8
MMP-8h, sequence (P22894 101-467): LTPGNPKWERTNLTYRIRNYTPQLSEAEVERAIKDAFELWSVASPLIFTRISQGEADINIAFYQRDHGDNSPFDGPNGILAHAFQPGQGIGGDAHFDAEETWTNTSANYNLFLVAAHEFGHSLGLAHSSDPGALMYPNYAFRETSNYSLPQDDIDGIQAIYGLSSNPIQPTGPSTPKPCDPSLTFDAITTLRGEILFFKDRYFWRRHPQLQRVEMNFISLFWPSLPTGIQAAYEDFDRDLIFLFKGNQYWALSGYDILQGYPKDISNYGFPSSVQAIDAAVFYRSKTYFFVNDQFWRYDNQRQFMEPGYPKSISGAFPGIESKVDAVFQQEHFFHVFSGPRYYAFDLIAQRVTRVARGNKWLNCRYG

MMP-10h = MMP-10h (Homo sapiens (Human), UniProt P09238); test: Inhibition constant (Ki) on MMP-10h; conditions: human MMP-10
MMP-10h, sequence (P09238 99-476): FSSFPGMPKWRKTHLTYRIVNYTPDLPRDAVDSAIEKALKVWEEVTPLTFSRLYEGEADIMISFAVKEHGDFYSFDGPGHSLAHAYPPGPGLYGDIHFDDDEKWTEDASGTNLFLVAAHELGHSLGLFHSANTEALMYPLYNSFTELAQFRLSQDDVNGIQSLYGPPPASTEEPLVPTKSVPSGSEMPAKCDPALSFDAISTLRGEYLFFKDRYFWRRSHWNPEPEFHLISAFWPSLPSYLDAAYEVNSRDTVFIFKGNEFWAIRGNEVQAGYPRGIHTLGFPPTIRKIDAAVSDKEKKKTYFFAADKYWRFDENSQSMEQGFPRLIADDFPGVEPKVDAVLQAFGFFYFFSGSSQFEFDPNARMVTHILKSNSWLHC

MMP-3h, sequence (P08254 100-477): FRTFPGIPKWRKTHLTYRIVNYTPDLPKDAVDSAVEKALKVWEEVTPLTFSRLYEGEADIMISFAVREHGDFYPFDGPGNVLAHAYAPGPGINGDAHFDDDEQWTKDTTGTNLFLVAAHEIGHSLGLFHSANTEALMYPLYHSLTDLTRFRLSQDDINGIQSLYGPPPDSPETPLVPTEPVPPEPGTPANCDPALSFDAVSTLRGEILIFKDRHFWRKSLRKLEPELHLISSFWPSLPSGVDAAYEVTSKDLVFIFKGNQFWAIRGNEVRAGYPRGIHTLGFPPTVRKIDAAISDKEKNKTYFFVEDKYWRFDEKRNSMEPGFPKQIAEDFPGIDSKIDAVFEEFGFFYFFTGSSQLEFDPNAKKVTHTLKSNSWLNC

SMILES: NC(=O)[C@H](Cc1c[nH]cn1)NC(=O)[C@H](CCC(=O)O)NC(=O)CCc1ccc(-c2cccs2)cc1 [Compound 86, (S)-5-((S)-1-amino-3-(1H-imidazol-4-yl)-1-oxopropan-2-ylamino)-5-oxo-4-(3-(4-(thiophen-2-yl)phenyl)propanamido)pentanoic acid]
Ki (MMP-3h; read-out: Ki MMP-3h): > 10000 nM
Ki (MMP-12h; read-out: Ki MMP-12h): 34 nM
Ki (MMP-9h; read-out: Ki MMP-9h): > 1000 nM
Ki (MMP-2h; read-out: Ki MMP-2h): 371 nM
Ki (MMP-13h; read-out: Ki MMP-13h): > 1000 nM
Ki (MMP-14h; read-out: Ki MMP-14h): > 1000 nM
Ki (MMP-8h; read-out: Ki MMP-8h): 63 nM
Ki (MMP-10h; read-out: Ki MMP-10h): > 1000 nM

SMILES: NC(=O)[C@H](CCC(=O)O)NC(=O)[C@H](Cc1ccc(O)cc1)NC(=O)CCc1ccc(-c2ccc(-c3ccccc3)cc2)cc1 [Compound 75, (S)-5-amino-4-((S)-3-(4-hydroxyphenyl)-2-(3-(4′-phenylbiphenyl-4-yl)propanamido)propanamido)-5-oxopentanoic acid]
Ki (MMP-3h; read-out: Ki MMP-3h): 252 nM
Ki (MMP-12h; read-out: Ki MMP-12h): 122 nM
Ki (MMP-9h; read-out: Ki MMP-9h): > 10000 nM
Ki (MMP-2h; read-out: Ki MMP-2h): > 1000 nM
Ki (MMP-13h; read-out: Ki MMP-13h): 232 nM
Ki (MMP-14h; read-out: Ki MMP-14h): > 10000 nM
Ki (MMP-8h; read-out: Ki MMP-8h): > 5000 nM
Ki (MMP-10h; read-out: Ki MMP-10h): > 1000 nM

SMILES: CC(C)C[C@H](NC(=O)CCc1ccc(-c2ccc(-c3ccccc3)cc2)cc1)C(=O)N[C@@H](CCC(=O)O)C(N)=O [Compound 79, (S)-5-amino-4-((S)-4-methyl-2-(3-(4′-phenylbiphenyl-4-yl)propanamido)pentanamido)-5-oxopentanoic acid]
Ki (MMP-3h; read-out: Ki MMP-3h): 203 nM
Ki (MMP-12h; read-out: Ki MMP-12h): > 1000 nM
Ki (MMP-9h; read-out: Ki MMP-9h): > 100000 nM
Ki (MMP-2h; read-out: Ki MMP-2h): > 1000 nM
Ki (MMP-13h; read-out: Ki MMP-13h): 443 nM
Ki (MMP-14h; read-out: Ki MMP-14h): > 10000 nM
Ki (MMP-8h; read-out: Ki MMP-8h): > 1000 nM
Ki (MMP-10h; read-out: Ki MMP-10h): > 1000 nM

SMILES: C[C@H](NC(=O)CCc1ccc(-c2ccc(-c3ccccc3)cc2)cc1)C(=O)N[C@@H](CCC(=O)O)C(N)=O [Compound 76, (S)-5-amino-4-((S)-2-(3-(4′-phenylbiphenyl-4-yl)propanamido)propanamido)-5-oxopentanoic acid]
Ki (MMP-3h; read-out: Ki MMP-3h): 142 nM
Ki (MMP-12h; read-out: Ki MMP-12h): 251 nM
Ki (MMP-9h; read-out: Ki MMP-9h): > 5000 nM
Ki (MMP-2h; read-out: Ki MMP-2h): 854 nM
Ki (MMP-13h; read-out: Ki MMP-13h): 427 nM
Ki (MMP-14h; read-out: Ki MMP-14h): > 5000 nM
Ki (MMP-8h; read-out: Ki MMP-8h): > 1000 nM
Ki (MMP-10h; read-out: Ki MMP-10h): > 10000 nM

SMILES: COc1cccc(-c2ccc(CCC(=O)N[C@@H](CCC(=O)O)C(=O)N[C@@H](CCC(=O)O)C(N)=O)cc2)c1 [Compound 59, (S)-5-amino-4-((S)-4-carboxy-2-(3-(3′-methoxybiphenyl-4-yl)propanamido)butanamido)-5-oxopentanoic acid]
Ki (MMP-3h; read-out: Ki MMP-3h): > 10000 nM
Ki (MMP-12h; read-out: Ki MMP-12h): 35 nM
Ki (MMP-9h; read-out: Ki MMP-9h): > 5000 nM
Ki (MMP-2h; read-out: Ki MMP-2h): > 5000 nM
Ki (MMP-13h; read-out: Ki MMP-13h): > 5000 nM
Ki (MMP-14h; read-out: Ki MMP-14h): > 10000 nM
Ki (MMP-8h; read-out: Ki MMP-8h): > 1000 nM
Ki (MMP-10h; read-out: Ki MMP-10h): > 1000 nM

SMILES: NC(=O)[C@H](CO)NC(=O)[C@H](CCC(=O)O)NC(=O)CCc1ccc(-c2cccs2)cc1 [Compound 87, (S)-5-((S)-1-amino-3-hydroxy-1-oxopropan-2-ylamino)-5-oxo-4-(3-(4-(thiophen-2-yl)phenyl)propanamido)pentanoic acid]
Ki (MMP-3h; read-out: Ki MMP-3h): > 10000 nM
Ki (MMP-12h; read-out: Ki MMP-12h): 16.4 nM
Ki (MMP-9h; read-out: Ki MMP-9h): > 1000 nM
Ki (MMP-2h; read-out: Ki MMP-2h): 147 nM
Ki (MMP-13h; read-out: Ki MMP-13h): > 1000 nM
Ki (MMP-14h; read-out: Ki MMP-14h): > 1000 nM
Ki (MMP-8h; read-out: Ki MMP-8h): 47 nM
Ki (MMP-10h; read-out: Ki MMP-10h): 742 nM

SMILES: O=C(O)CC[C@H](NC(=O)CCc1ccc(-c2cccs2)cc1)C(=O)N1CCC[C@@H](CC(=O)O)C1 [Compound 89, (S)-5-((S)-3-(carboxymethyl)piperidin-1-yl)-5-oxo-4-(3-(4-(thiophen-2-yl)phenyl)propanamido)pentanoic acid]
Ki (MMP-3h; read-out: Ki MMP-3h): > 100000 nM
Ki (MMP-12h; read-out: Ki MMP-12h): 124 nM
Ki (MMP-9h; read-out: Ki MMP-9h): > 1000 nM
Ki (MMP-2h; read-out: Ki MMP-2h): 484 nM
Ki (MMP-13h; read-out: Ki MMP-13h): > 1000 nM
Ki (MMP-14h; read-out: Ki MMP-14h): > 1000 nM
Ki (MMP-8h; read-out: Ki MMP-8h): 94 nM
Ki (MMP-10h; read-out: Ki MMP-10h): > 5000 nM

SMILES: O=C(O)CC[C@H](NC(=O)CCc1ccc(-c2ccc(-c3ccccc3)cc2)cc1)C(=O)N1CCC[C@@H](CC(=O)O)C1 [Compound 70, (S)-5-((S)-3-(carboxymethyl)piperidin-1-yl)-4-(3-(4′-phenylbiphenyl-4-yl)propanamido)-5-oxopentanoic acid]
Ki (MMP-3h; read-out: Ki MMP-3h): 231 nM
Ki (MMP-12h; read-out: Ki MMP-12h): 4.7 nM
Ki (MMP-9h; read-out: Ki MMP-9h): > 5000 nM
Ki (MMP-2h; read-out: Ki MMP-2h): 12 nM
Ki (MMP-13h; read-out: Ki MMP-13h): 17 nM
Ki (MMP-14h; read-out: Ki MMP-14h): > 1000 nM
Ki (MMP-8h; read-out: Ki MMP-8h): 105 nM
Ki (MMP-10h; read-out: Ki MMP-10h): 421 nM

SMILES: NC(=O)[C@H](CCC(=O)O)NC(=O)[C@H](CCC(=O)O)NC(=O)CCc1ccc(-c2cccc(CO)c2)cc1 [Compound 60, (S)-5-amino-4-((S)-4-carboxy-2-(3-(3′-(hydroxymethyl)biphenyl-4-yl)propanamido)butanamido)-5-oxopentanoic acid]
Ki (MMP-3h; read-out: Ki MMP-3h): > 10000 nM
Ki (MMP-12h; read-out: Ki MMP-12h): 52 nM
Ki (MMP-9h; read-out: Ki MMP-9h): > 5000 nM
Ki (MMP-2h; read-out: Ki MMP-2h): > 5000 nM
Ki (MMP-13h; read-out: Ki MMP-13h): > 5000 nM
Ki (MMP-14h; read-out: Ki MMP-14h): > 10000 nM
Ki (MMP-8h; read-out: Ki MMP-8h): 809 nM
Ki (MMP-10h; read-out: Ki MMP-10h): > 5000 nM

SMILES: NC(=O)[C@H](Cc1ccc(O)cc1)NC(=O)[C@H](CCC(=O)O)NC(=O)CCc1ccc(-c2ccc(-c3ccccc3)cc2)cc1 [Compound 65, (S)-5-((S)-1-amino-3-(4-hydroxyphenyl)-1-oxopropan-2-ylamino)-4-(3-(4′-phenylbiphenyl-4-yl)propanamido)-5-oxopentanoic acid]
Ki (MMP-3h; read-out: Ki MMP-3h): 620 nM
Ki (MMP-12h; read-out: Ki MMP-12h): 6.6 nM
Ki (MMP-9h; read-out: Ki MMP-9h): > 1000 nM
Ki (MMP-2h; read-out: Ki MMP-2h): 73 nM
Ki (MMP-13h; read-out: Ki MMP-13h): 33 nM
Ki (MMP-14h; read-out: Ki MMP-14h): > 1000 nM
Ki (MMP-8h; read-out: Ki MMP-8h): 793 nM
Ki (MMP-10h; read-out: Ki MMP-10h): 119 nM

Ki (MMP-3h): 302 nM
Ki (MMP-12h): 254 nM
Ki (MMP-9h): > 10000 nM
Ki (MMP-2h): > 1000 nM
Ki (MMP-13h): 191 nM
Ki (MMP-14h): > 10000 nM
Ki (MMP-8h): > 1000 nM
Ki (MMP-10h): 556 nM
SMILES: NC(=O)[C@H](CCC(=O)O)NC(=O)[C@H](CCCC(=O)O)NC(=O)CCc1cc(-c2ccc(-c3cccc(Cl)c3)cc2)no1 [Compound 11, (S)-6-((S)-1-amino-4-carboxy-1-oxobutan-2-ylamino)-5-(3-(3-(3′-chlorobiphenyl-4-yl)isoxazol-5-yl)propanamido)-6-oxohexanoic acid]

Ki (MMP-3h): 88 nM
Ki (MMP-12h): 2.2 nM
Ki (MMP-9h): 618 nM
Ki (MMP-2h): 151 nM
Ki (MMP-13h): 134 nM
Ki (MMP-14h): 547 nM
Ki (MMP-8h): 146 nM
Ki (MMP-10h): 99 nM
SMILES: NC(=O)[C@H](CCC(=O)O)NC(=O)[C@H](CCC(=O)O)NC(=O)CCc1ccc(-c2nc3ccccc3s2)cc1 [Compound 39, (S)-5-amino-4-((S)-2-(3-(4-(benzo[d]thiazol-2-yl)phenyl)propanamido)-4-carboxybutanamido)-5-oxopentanoic acid]

SMILES: NC(=O)[C@H](CCC(=O)O)NC(=O)[C@H](CCC(=O)O)NC(=O)CCc1ccc(-c2ccsc2)cc1 [Compound 38, (S)-5-amino-4-((S)-4-carboxy-2-(3-(4-(thiophen-3-yl)phenyl)propanamido)butanamido)-5-oxopentanoic acid]
Ki (MMP-3h): 337 nM
Ki (MMP-12h): 12 nM
Ki (MMP-9h): 141 nM
Ki (MMP-2h): 225 nM
Ki (MMP-13h): 532 nM
Ki (MMP-14h): 410 nM
Ki (MMP-8h): 52 nM
Ki (MMP-10h): 446 nM

SMILES: NC(=O)[C@@H](CCC(=O)O)NC(=O)[C@@H](CCC(=O)O)NC(=O)CCc1cc(-c2ccc(-c3cccc(Cl)c3)cc2)no1 [Compound 7, (R)-5-amino-4-((R)-4-carboxy-2-(3-(3-(3′-chlorobiphenyl-4-yl)isoxazol-5-yl)propanamido)butanamido)-5-oxopentanoic acid]
Ki (MMP-3h; read-out: Ki MMP-3h): 897 nM
Ki (MMP-12h; read-out: Ki MMP-12h): 268 nM
Ki (MMP-9h; read-out: Ki MMP-9h): > 5000 nM
Ki (MMP-2h; read-out: Ki MMP-2h): 538 nM
Ki (MMP-13h; read-out: Ki MMP-13h): 114 nM
Ki (MMP-14h; read-out: Ki MMP-14h): > 10000 nM
Ki (MMP-8h; read-out: Ki MMP-8h): > 1000 nM
Ki (MMP-10h; read-out: Ki MMP-10h): 111 nM

SMILES: C[C@H](NC(=O)[C@H](CCC(=O)O)NC(=O)CCc1ccc(-c2ccccc2)cc1)C(N)=O [Compound 47, (S)-5-((S)-1-amino-1-oxopropan-2-ylamino)-4-(3-(biphenyl-4-yl)propanamido)-5-oxopentanoic acid]
Ki (MMP-3h; read-out: Ki MMP-3h): > 10000 nM
Ki (MMP-12h; read-out: Ki MMP-12h): 58 nM
Ki (MMP-9h; read-out: Ki MMP-9h): > 1000 nM
Ki (MMP-2h; read-out: Ki MMP-2h): > 1000 nM
Ki (MMP-13h; read-out: Ki MMP-13h): > 1000 nM
Ki (MMP-14h; read-out: Ki MMP-14h): > 5000 nM
Ki (MMP-8h; read-out: Ki MMP-8h): 311 nM
Ki (MMP-10h; read-out: Ki MMP-10h): > 1000 nM
